Measurements published in ChEMBL document CHEMBL1154743, “A novel potent nicotinamide phosphoribosyltransferase inhibitor synthesized via click chemistry” (J Med Chem, 2010).
Calls of active or inactive are those of the source. The calls are words filed in the database; no cut-off is given here.

Columns and labels:
SK-MEL-28 = assay: Growth inhibition of human SK-MEL-28 cells by sulforhodamine B assay; assay type: functional
UACC-62 = assay: Growth inhibition of human UACC62 cells by sulforhodamine B assay; assay type: functional
IGROV-1 = assay: Growth inhibition of human IGROV1 cells by sulforhodamine B assay; assay type: functional
OVCAR-3 = assay: Growth inhibition of human OVCAR-3 cells by sulforhodamine B assay; assay type: functional
OVCAR-5 = assay: Growth inhibition of human OVCAR5 cells by sulforhodamine B assay; assay type: functional
OVCAR-8 = assay: Growth inhibition of human OVCAR8 cells by sulforhodamine B assay; assay type: functional
NCI/ADR-RES = assay: Growth inhibition of human NCI/ADR-RES cells by sulforhodamine B assay; assay type: functional
SK-OV-3 = assay: Growth inhibition of human SKOV3 cells by sulforhodamine B assay; assay type: functional
786-0 = assay: Growth inhibition of human 786-0 cells by sulforhodamine B assay; assay type: functional
A498 = assay: Growth inhibition of human A498 cells by sulforhodamine B assay; assay type: functional
CAKI-1 = assay: Growth inhibition of human Caki1 cells by sulforhodamine B assay; assay type: functional
RXF 393 = assay: Growth inhibition of human RXF393 cells by sulforhodamine B assay; assay type: functional
SN12C = assay: Growth inhibition of human SN12C cells by sulforhodamine B assay; assay type: functional
TK-10 = assay: Growth inhibition of human TK10 cells by sulforhodamine B assay; assay type: functional
PC-3 = assay: Growth inhibition of human PC3 cells by sulforhodamine B assay; assay type: functional
[1] = Growth inhibition of human Hs 578T cells by sulforhodamine B assay; assay type: functional
BT-549 = assay: Growth inhibition of human BT549 cells by sulforhodamine B assay; assay type: functional
T47D = assay: Growth inhibition of human T47D cells by sulforhodamine B assay; assay type: functional
SH-SY5Y = assay: Induction of autophagy in human SH-SY5Y cells expressing EGFP-LC3 assessed as colocalization of autophagic vacuoles with lysosomes in acidic compartment of cell at 10 nM; assay type: functional, cell-based
[2] = read-out: LC50 (the source's name)

O=C(CCCCCCCn1cc(-c2cccnc2)nn1)Nc1ccccc1-c1ccccc1
GI50 (SK-MEL-28): 1.59 µM | TGI (SK-MEL-28): > 100 µM | CC50 (SK-MEL-28; [2]): > 100 µM | GI50 (UACC-62): 13.3 µM | TGI (UACC-62): 51.4 µM | CC50 (UACC-62; [2]): > 100 µM | GI50 (IGROV-1): 0.272 µM | TGI (IGROV-1): > 100 µM | CC50 (IGROV-1; [2]): > 100 µM | GI50 (OVCAR-3): 5.19 µM | TGI (OVCAR-3): > 100 µM | CC50 (OVCAR-3; [2]): > 100 µM | GI50 (OVCAR-5): 0.268 µM | TGI (OVCAR-5): > 100 µM | CC50 (OVCAR-5; [2]): > 100 µM | GI50 (OVCAR-8): 0.0574 µM | TGI (OVCAR-8): > 38 µM | CC50 (OVCAR-8; [2]): > 100 µM | GI50 (NCI/ADR-RES): 0.0814 µM | TGI (NCI/ADR-RES): 33.1 µM | CC50 (NCI/ADR-RES; [2]): > 100 µM | GI50 (SK-OV-3): 20.5 µM | TGI (SK-OV-3): > 100 µM | CC50 (SK-OV-3; [2]): > 100 µM | GI50 (786-0): 7.33 µM | TGI (786-0): > 100 µM | CC50 (786-0; [2]): > 100 µM | GI50 (A498): 15.9 µM | TGI (A498): > 100 µM | CC50 (A498; [2]): > 100 µM | GI50 (CAKI-1): 0.776 µM | TGI (CAKI-1): > 100 µM | CC50 (CAKI-1; [2]): > 100 µM | GI50 (RXF 393): 100 µM | TGI (RXF 393): > 100 µM | CC50 (RXF 393; [2]): > 100 µM | GI50 (SN12C): 0.0426 µM | TGI (SN12C): > 100 µM | CC50 (SN12C; [2]): > 100 µM | GI50 (TK-10): 18.2 µM | TGI (TK-10): > 100 µM | CC50 (TK-10; [2]): > 100 µM | GI50 (PC-3): 0.467 µM | TGI (PC-3): 42.8 µM | CC50 (PC-3; [2]): > 100 µM | GI50 [1]: 20.4 µM | TGI [1]: > 100 µM | CC50 [1, 2]: > 100 µM | GI50 (BT-549): 1.7 µM | TGI (BT-549): 39.3 µM | CC50 (BT-549; [2]): > 100 µM | GI50 (T47D): 1.23 µM | TGI (T47D): 16 µM | CC50 (T47D; [2]): > 100 µM | Activity (SH-SY5Y): Active
